The text below walks through data of patent publication US4605614A, “Method for measuring plasmin” (Nitto Boseki Co., Ltd., priority 1981, dated 1986).

Experiment [1] deals with T1, plasmin (pig) (Sus scrofa, UniProt P06867). To be noted: prior substrate; enzyme not stated in the sentence (plasmin substrates); cited from earlier work.
In another experiment the target is Thrombin (TH) (Bos taurus, UniProt P00735). Format: biochemical, Cow. To be noted: TABLE 3, PNA substrates; So = 0.54 mmole/l; pH 8.4; 37° C., 10 minutes; 1.0 NIH/ml.
Thrombin (TH), sequence (P00735 44-625): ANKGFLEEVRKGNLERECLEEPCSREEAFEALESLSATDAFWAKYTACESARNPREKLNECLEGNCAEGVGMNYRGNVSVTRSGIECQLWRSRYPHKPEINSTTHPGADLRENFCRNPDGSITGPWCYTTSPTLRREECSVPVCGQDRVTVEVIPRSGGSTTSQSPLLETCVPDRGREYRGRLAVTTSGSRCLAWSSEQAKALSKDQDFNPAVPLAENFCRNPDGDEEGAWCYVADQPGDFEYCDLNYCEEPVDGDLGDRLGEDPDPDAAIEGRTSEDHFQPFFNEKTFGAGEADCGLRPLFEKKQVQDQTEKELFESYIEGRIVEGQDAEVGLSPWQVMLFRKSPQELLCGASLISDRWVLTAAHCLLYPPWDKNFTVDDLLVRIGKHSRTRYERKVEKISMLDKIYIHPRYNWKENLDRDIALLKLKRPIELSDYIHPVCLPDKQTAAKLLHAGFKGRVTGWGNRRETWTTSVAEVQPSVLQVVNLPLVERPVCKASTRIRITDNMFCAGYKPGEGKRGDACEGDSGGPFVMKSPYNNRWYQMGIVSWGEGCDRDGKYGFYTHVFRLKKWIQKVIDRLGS
The target in a further experiment is Kallikrein (KL) (Sus scrofa, UniProt P00752). Type of experiment: biochemical, Pig. To be noted: TABLE 3, PNA substrates; So = 0.54 mmole/l; pH 7.9; 37° C., 10 minutes; 1.0 BAEE-U/ml.
Kallikrein (KL), sequence (P00752 8-246): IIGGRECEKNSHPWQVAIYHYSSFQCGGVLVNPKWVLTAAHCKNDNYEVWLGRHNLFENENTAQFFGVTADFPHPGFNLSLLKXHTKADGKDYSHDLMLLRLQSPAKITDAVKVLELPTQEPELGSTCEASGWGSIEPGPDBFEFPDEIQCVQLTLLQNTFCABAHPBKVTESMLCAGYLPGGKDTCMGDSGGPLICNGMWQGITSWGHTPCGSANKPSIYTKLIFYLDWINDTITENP
Another experiment has as its target Plasmin (PL) (Sus scrofa, UniProt P06867). Format: biochemical, Pig. The note with it: TABLE 3, PNA substrates; So = 0.54 mmole/l; pH 7.4; 37° C., 10 minutes; 0.32 CU/ml.
The target of a further experiment is Factor-Xa (FXa) (Bos taurus, UniProt P00743). Type of experiment: biochemical, Cow. The note with it: TABLE 3, PNA substrates; So = 0.54 mmole/l; pH 8.4; 37° C., 10 minutes; 0.4 U/ml.
Factor-Xa (FXa), sequence (P00743 41-180): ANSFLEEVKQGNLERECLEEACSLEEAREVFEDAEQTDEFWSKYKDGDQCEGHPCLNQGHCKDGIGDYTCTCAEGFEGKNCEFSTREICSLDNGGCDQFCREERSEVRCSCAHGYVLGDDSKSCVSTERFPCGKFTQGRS
Factor-Xa (FXa), sequence (P00743 234-492): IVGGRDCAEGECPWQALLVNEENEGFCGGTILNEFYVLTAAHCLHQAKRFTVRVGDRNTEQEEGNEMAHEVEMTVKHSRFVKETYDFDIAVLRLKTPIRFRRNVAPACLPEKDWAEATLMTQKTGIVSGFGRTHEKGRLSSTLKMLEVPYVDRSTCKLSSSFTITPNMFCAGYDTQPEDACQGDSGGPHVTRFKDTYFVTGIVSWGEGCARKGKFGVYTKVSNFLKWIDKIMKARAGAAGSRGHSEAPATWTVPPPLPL
Experiment [2] deals with T1, plasmin (pig). The experiment in a line: Km, Vmax and Vmax/Km of substrates for plasmin (pig). Format: biochemical, Porcine (pig).
Excerpt: The substrates produced by the above examples were used in the measurement of plasmin as follows: The principle of this measurement comprises quantitatively analyzing the decomposition product p-nitroaniline or 3-carboxy-4-hydroxyaniline produced by the enzymatic hydrolysis, by measuring the absorbance (O.D.) directly at 405 nm in the case of p-nitroaniline and, in the case of the 3-carboxy-4-hydroxyaniline at 615 nm after condensing it with 2,6-xylenol in the presence of an oxidant to develop a color.
For the measurements of these constants, the following method is adopted:
The enzyme and the substrate are mixed in a buffer solution and subjected to the hydrolysis for 30 seconds. The concentration of the substrate [S] is changed and the enzyme concentration is maintained constant. By measuring the absorbance (O.D.), the initial velocity of the hydrolysis can be determined. Where 1/V is plotted as a function of 1/[S], there is obtained a Lineweaver and Burk's linea from which graph the Vmax and Km can be determined.
Experiment [3] relates to coagulation and linear dissolution related enzymes such as thrombin, Factor Xa, UK. To be noted: in words, prior substrate; cited from earlier work.
The next experiment addresses Urokinase (UK) (Homo sapiens, UniProt P00749). Type of experiment: biochemical. To be noted: TABLE 3, PNA substrates; So = 0.54 mmole/l; pH 8.2; 37° C., 10 minutes; 1000 IU/ml.

Each structure is given as a SMILES string. Where a SMILES comes first, the peptide text is derived from it.

T1 sequence (P06867 97-809): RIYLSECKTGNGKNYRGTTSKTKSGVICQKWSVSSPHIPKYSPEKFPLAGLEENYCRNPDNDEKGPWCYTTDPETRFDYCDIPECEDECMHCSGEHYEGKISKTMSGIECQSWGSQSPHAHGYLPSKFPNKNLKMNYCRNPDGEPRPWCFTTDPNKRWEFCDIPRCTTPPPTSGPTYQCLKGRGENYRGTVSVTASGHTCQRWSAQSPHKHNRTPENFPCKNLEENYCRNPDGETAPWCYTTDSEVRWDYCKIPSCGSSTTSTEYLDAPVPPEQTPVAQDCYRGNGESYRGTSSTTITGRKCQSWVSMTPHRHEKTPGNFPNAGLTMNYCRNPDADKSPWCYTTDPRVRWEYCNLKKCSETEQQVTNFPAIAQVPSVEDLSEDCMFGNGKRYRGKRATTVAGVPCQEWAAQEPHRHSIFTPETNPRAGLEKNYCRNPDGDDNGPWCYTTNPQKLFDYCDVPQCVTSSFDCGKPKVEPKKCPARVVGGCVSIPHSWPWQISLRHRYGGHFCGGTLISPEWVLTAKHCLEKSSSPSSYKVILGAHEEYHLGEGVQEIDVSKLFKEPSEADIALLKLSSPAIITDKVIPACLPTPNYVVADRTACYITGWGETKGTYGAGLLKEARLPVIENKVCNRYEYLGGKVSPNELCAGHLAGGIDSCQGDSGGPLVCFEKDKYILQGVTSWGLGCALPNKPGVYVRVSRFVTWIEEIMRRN
Plasmin (PL), sequence (P06867 97-809): as above
Description for Kallikrein (KL): (§1) The specificities of the novelly synthesized substrates were tested by reacting them with various enzymes respectively.
(§2) (1) Substrate solution concentration: 35 mmole/liter H2 O
(§3) (2) Buffer: Tris-hydrochloric acid buffer 50 mmole/l, NaCl 150 mmole/l (0.875%) was employed, and the pH for reaction was as follows depending on the enzyme.
(§4) 2,6-Xylenol 7.0 mmole+NaIO4 1.5 mmole/0.2N KOH
(§5) 0.5 ml of the buffer solution and 0.05 ml of the enzyme reagent were taken into a silicon-treated hard glass test tube or a plastic test tube, and preheated in a constant temperature bath at 37° C. for 5 minutes. Thereafter, 0.1 ml of the substrate solution was added to effect the enzymatic reaction at 37° C. for 10 minutes. Exactly after 10 minutes, 2.5 ml of the reaction terminating solution or the terminating and color developing reagent solution was added to terminate the enzymatic reaction, and after allowing to stand at 25° C. for 10 minutes, the absorbance at 405 nm or 645 nm was measured, in which [drawing 49]
Description for Plasmin (PL): as §2, §3
Plasmin Pig Sigma (U.S.A.)
as §5
Description for Thrombin (TH): as §1, §2, §3, §4, §5
Description for Urokinase (UK): as §1, §2, §3, §4, §5

As for `Cc1ccc(S(=O)(=O)NCC(=O)N2CCC[C@H]2C(=O)N[C@@H](CCCCN)C(=O)Nc2ccc([N+](=O)[O-])cc2)cc1` [CHR-PL, Tos-Gly-Pro-Lys-PNA, reference compound] (HELM PEPTIDE1{[Cc1ccc(S(=O)(=O)[*:2])cc1].G.P.K.[O=[N+]([O-])c1ccc(N[*:1])cc1]}$$$$V2.0), at plasmin (pig) [1], the “Km value compared with S-2251 (in words)” value is “smaller than that of S-2251”. The “Selectivity TH, absorbance (O.D.) at 405 nm” value on Thrombin (TH) is listed as 0.057 O.D. The “Selectivity KL, absorbance (O.D.) at 405 nm” value on Kallikrein (KL) worked out at 0.004 O.D. The “Selectivity PL, absorbance (O.D.) at 405 nm” value on Plasmin (PL) is 0.647 O.D. For the same molecule, the “Selectivity FXa, absorbance (O.D.) at 405 nm” value on Factor-Xa (FXa) is listed as 0.026 O.D. On plasmin (pig) [2] (Porcine Plasmin, comparison table in description), the “Vmax (× 10^-6) [mole/min/Cu]” value was 6.0 × 10^-6 mole/min/Cu. The “V/Km (× 10^-3)” value at plasmin (pig) [2] (TABLE 1, PNA substrates, plasmin (pig)) is reported as 21.628 × 10^-3. Also, the “Vmax (× 10^7)” value at plasmin (pig) [2] (TABLE 1, PNA substrates, plasmin (pig), 405 nm) is 60.067 × 10^7. Further, the Relative ratio at plasmin (pig) [2] (TABLE 1, V/Km of each sample divided by that of S2251) amounted to 1.889. Also, the “reaction with coagulation and linear dissolution related enzymes such as thrombin, Factor Xa, UK” value in experiment [3] is recorded as “considerably reacts”. Also, at Urokinase (UK), the “Selectivity UK, absorbance (O.D.) at 405 nm” value was 0.069 O.D.
